Laboratory results as given in PubChem BioAssay (NCI).
Where “and” joins values, the source holds several entries; their conditions need not be identical. Equal values may be shown once.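 Growth conditions: 96-well plates. Treatment: test compound, 48 hours, 5 concentrations. Analysis: linear interpolation between bracketing concentrations; unreached endpoints set to highest concentration. GI50 = concentration required for 50% inhibition of growth. TGI: concentration producing complete growth inhibition.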

Assays:
Assay in all cases: NCI-60 cell line screen, 48 h
[1] = test system: OVCAR-5 ovarian
[2] = test system: SNB-75 CNS
[3] = test system: NCI-H522 lung
[4] = test system: SR leukemia
[5] = test system: PC-3 prostate
[6] = test system: SNB-19 CNS
[7] = test system: EKVX NSCLC
[8] = test system: SN12C renal
[9] = test system: CAKI-1 renal
[10] = test system: CCRF-CEM leukemia

| SMILES | TGI [1] | TGI [2] | TGI [3] | TGI [4] | TGI [5] | TGI [6] | TGI [7] | TGI [8] | TGI [9] | TGI [10] | GI50 [1] | GI50 [2] | GI50 [4] | GI50 [6] | GI50 [7] | GI50 [8] | GI50 [9] | GI50 [10] |
| --- | --- | --- | --- | --- | --- | --- | --- | --- | --- | --- | --- | --- | --- | --- | --- | --- | --- | --- |
| COc1c(O)c2c(=O)cc(OC)c3c4c(OC)cc(=O)c5c(O)c(OC)c6c(c(c1C(C(C)O)C6C(C)O)c23)c54 (stereo not drawn) | 7.62 µM | 2.89 µM | 3.82 µM | 5.37 µM | 1.85 µM | 6.22 µM | 3.56 µM | 3.17 µM | 0.842 µM | 3.23 µM | – | – | – | – | – | – | – | – |
| O=[N+]([O-])c1ccc2c(c1)C1=NN(c3ccccc3)C(c3ccccc3Br)C1CCC2 (stereo not drawn) | > 50 µM | > 50 µM | > 50 µM | > 50 µM | > 50 µM | > 50 µM | > 50 µM | > 50 µM | > 50 µM | 27.4 µM | – | – | – | – | – | – | – | – |
| COc1cc2c(cc1Cc1c(F)cccc1Cl)nc(-c1c(F)cccc1Cl)n2Cc1c(F)cccc1Cl | > 100 µM | 70.4 µM | 59 µM | > 100 µM | > 100 µM | > 100 µM | 69.7 µM | > 100 µM | 91.3 µM | > 100 µM | – | – | – | – | – | – | – | – |
| O=C(Nc1noc(-c2ccccc2)n1)c1ccccc1CNc1noc(-c2ccccc2)n1 | > 100 µM | > 100 µM | > 100 µM | > 100 µM | > 100 µM | > 100 µM | > 100 µM | > 100 µM | > 100 µM | > 100 µM | – | – | – | – | – | – | – | – |
| NC(=O)N/N=C1\CC2C3CC4C2C4C13 (stereo not drawn) | > 100 µM | > 100 µM | > 100 µM | > 100 µM | > 100 µM | > 100 µM | > 100 µM | > 100 µM | > 100 µM | > 100 µM | – | – | – | – | – | – | – | – |
| Oc1[nH]c2ccccc2c1N=NC(=S)Nc1ccc(Cl)cc1 | > 100 µM | > 100 µM | > 100 µM | > 100 µM | > 100 µM | > 100 µM | > 100 µM | > 100 µM | 64 µM | > 100 µM | – | – | – | – | – | – | – | – |
| CC(=O)c1ccc2c(c1)CC1(C2)Cc2ccccc2C1=O (stereo not drawn) | > 100 µM | > 100 µM | 99.6 µM | > 100 µM | > 100 µM | > 100 µM | > 100 µM | > 100 µM | > 100 µM | > 100 µM | – | – | – | – | – | – | – | – |
| COC1=C(C)C(=O)c2c(c(COC(N)=O)c3n2CC(OC(C)=O)C3OC(C)=O)C1=O (stereo not drawn) | 0.652 µM | 1.09 µM | 0.0379 µM | 0.0442 µM | 0.402 µM | 2.09 µM | 0.678 µM | 1.09 µM | < 0.0278 µM | 13.8 µM | – | – | – | – | – | – | – | – |
| [O-]/[N+](=C\c1ccccc1OC(=S)S)c1ccc(Cl)cc1 | > 100 µM | > 100 µM | 52.8 µM | > 100 µM | > 100 µM | > 100 µM | > 100 µM | 97.8 µM | > 100 µM | > 100 µM | – | – | – | – | – | – | – | – |
| CC(C(=O)O)C(C)(O)C(=O)O (stereo not drawn) | > 100 µM | > 100 µM | > 100 µM | > 100 µM | > 100 µM | > 100 µM | > 100 µM | > 100 µM | > 100 µM | > 100 µM | – | – | – | – | – | – | – | – |
| COc1ccc(CC2COc3cc(O)cc(O)c3C2=O)cc1O (stereo not drawn) | > 100 µM | 6.98 µM | > 100 µM | > 100 µM | > 100 µM | > 100 µM | > 100 µM | > 100 µM | > 100 µM | > 100 µM | – | – | – | – | – | – | – | – |
| C#CCN(Cc1ccc2nc(OC)c(OC)nc2c1)c1cc(OC)c(OC)c(OC)c1 | > 85.8 µM | > 100 µM | 36.1 µM | > 61.7 µM | > 91.5 µM | > 80.9 µM | > 86 µM | 57.2 µM | > 82.8 µM | > 100 µM | – | – | – | – | – | – | – | – |
| O=c1cc(N2CCCC2)[nH]c(=O)n1-c1ccccc1 | > 100 µM | > 100 µM | > 100 µM | > 100 µM | > 100 µM | > 100 µM | > 100 µM | > 100 µM | > 100 µM | > 100 µM | – | – | – | – | – | – | – | – |
| OCc1ccc2c(c1)CC1(Cc3ccc(/C=N/O)cc3C1)C2 (stereo not drawn) | > 87.7 µM | > 25.5 µM | 10.8 µM | > 100 µM | > 100 µM | > 100 µM | > 100 µM | > 54.5 µM | > 89.7 µM | > 100 µM | – | – | – | – | – | – | – | – |
| C=C(CN(C)C)C(=O)c1ccccc1[N+](=O)[O-] | 29.4 µM and 31.1 µM | 66.3 µM and 44.4 µM | 7.74 µM | > 33.3 µM and 5.74 µM | 31.3 µM and 13.5 µM | > 68.2 µM and 47.7 µM | > 59.3 µM and 49 µM | 32.6 µM and 24.7 µM | 28.2 µM and 2.88 µM | 8.06 µM | 16.3 µM | 15.8 µM | 1.65 µM | 23.3 µM | 23 µM | 3.74 µM | 1.55 µM | 2.7 µM and 2.18 µM |
| CCOC(=O)/C=C(\C(=O)OCC)n1ccc(=O)n(Cc2cn(COCCOC(C)=O)nn2)c1=O | 55.2 µM | > 69.4 µM | 8.34 µM | 52.9 µM | 41.5 µM | > 89.5 µM | 38.9 µM | 41.8 µM | 21.2 µM | 11.9 µM | – | – | – | – | – | – | – | – |
| N#Cc1nc(C2CCC2)oc1N | > 100 µM | > 100 µM | > 100 µM | > 100 µM | > 100 µM | > 100 µM | > 100 µM | > 100 µM | > 100 µM | 54.7 µM | – | – | – | – | – | – | – | – |
